Type in all cases: functional
Experiment [1] deals with Staphylococcus aureus. In words: Antibacterial activity against hetero-Methicillin-resistant and tetracycline-resistant Staphylococcus aureus deltaIP by Etest method.
For experiment [2], the system named is Staphylococcus aureus. The experiment in a line: Antibacterial activity against homo-Methicillin-resistant and tetracycline-resistant Staphylococcus aureus H14 harboring vraS S329L mutant gene by Etest method.
Experiment [3] has as its system Staphylococcus aureus. The experiment in a line: Antibacterial activity against methicillin-susceptible, tetracycline-resistant and chloramphenicol-resistant Staphylococcus aureus deltaIP-KVR by Etest method.
For experiment [4], the system named is Staphylococcus aureus. In words: Antibacterial activity against methicillin-susceptible, tetracycline-resistant and chloramphenicol-resistant Staphylococcus aureus H14-KVR by Etest method.
Experiment [5] has as its system Staphylococcus aureus. The experiment in a line: Antibacterial activity against hetero-Methicillin-resistant and tetracycline-resistant and rifampicin-resistant Staphylococcus aureus deltaIP-rifR harboring RpoB H481Y mutant gene by Etest method.
For experiment [6], the system named is Staphylococcus aureus. In words: Antibacterial activity against homo-Methicillin-resistant and tetracycline-resistant Staphylococcus aureus deltaIP::vraSH14 harboring vraSH14 S329L mutant gene by Etest method.
Experiment [7] deals with Staphylococcus aureus. In words: Antibacterial activity against homo-Methicillin-resistant and tetracycline-resistant and rifampicin-resistant Staphylococcus aureus deltaIP-rifR::vraSH14 by Etest method.
Experiment [8] relates to Staphylococcus aureus. The experiment in a line: Antibacterial activity against hetero-vancomycin-intermediate Staphylococcus aureus Mu3 by Etest method.

Converted amounts (≈) assume the structure as drawn. Positions of bridges follow the written chain, without caps; N, C: chain ends. Non-standard residues stand in square brackets, D forms with d. Residues, ends and D or L forms follow the SMILES beside them. *: point of attachment. Ileψ(thiazoline)Cys = CC[C@H](C)[C@H](N)C1=N[C@H](C(=O)*)CS1; dOrn = NCCC[C@@H](N)C(=O)O Where only a bound is given, the exact number is not on record here.

For the compound GENTAMICIN, the MIC (usually the lowest concentration that inhibits growth of the organism) is 0.75 µg/mL against Staphylococcus aureus [1]; 0.75 µg/mL against Staphylococcus aureus [2]; 0.75 µg/mL in the experiment with Staphylococcus aureus [3]; 0.75 µg/mL with Staphylococcus aureus [4]; 1 µg/mL in the experiment with Staphylococcus aureus [5]; 0.75 µg/mL with Staphylococcus aureus [6]. Besides, the MIC in the experiment on Staphylococcus aureus [7] is 1 µg/mL; against Staphylococcus aureus [8], 384 µg/mL.
As for `CC[C@H](C)[C@H](N)C1=N[C@H](C(=O)N[C@@H](CC(C)C)C(=O)N[C@H](CCC(=O)O)C(=O)N[C@H](C(=O)N[C@H]2CCCCNC(=O)[C@H](CC(N)=O)NC(=O)[C@@H](CC(=O)O)NC(=O)[C@H](Cc3cnc[nH]3)NC(=O)[C@@H](Cc3ccccc3)NC(=O)[C@H]([C@@H](C)CC)NC(=O)[C@@H](CCCN)NC2=O)[C@@H](C)CC)CS1` [BACITRACIN] ({Ileψ(thiazoline)Cys}-L[dE]IK[dOrn]I[dF]H[dD]N; lactam 4-C), the MIC against Staphylococcus aureus [1] turned out to be 32 µg/mL (≈ 22.5 µM); with Staphylococcus aureus [2] it was 96 µg/mL (≈ 67.5 µM); against Staphylococcus aureus [3] it was 4 µg/mL (≈ 2.81 µM); in the experiment on Staphylococcus aureus [4], 4 µg/mL (≈ 2.81 µM); with Staphylococcus aureus [5], 24 µg/mL (≈ 16.9 µM); in the experiment with Staphylococcus aureus [6], 96 µg/mL (≈ 67.5 µM). Besides, the MIC with Staphylococcus aureus [7] turned out to be 96 µg/mL (≈ 67.5 µM); with Staphylococcus aureus [8] it was 256 µg/mL (≈ 180 µM).
Turning to `CCCCCCCCCC(=O)N[C@@H](Cc1c[nH]c2ccccc12)C(=O)N[C@H](CC(N)=O)C(=O)N[C@@H](CC(=O)O)C(=O)N[C@@H]1C(=O)NCC(=O)N[C@@H](CCCN)C(=O)N[C@@H](CC(=O)O)C(=O)N[C@H](C)C(=O)N[C@@H](CC(=O)O)C(=O)NCC(=O)N[C@H](CO)C(=O)N[C@@H]([C@H](C)CC(=O)O)C(=O)N[C@@H](CC(=O)c2ccccc2N)C(=O)O[C@@H]1C`, the MIC is 0.75 µg/mL (≈ 0.463 µM) in the experiment with Staphylococcus aureus [1]; 1.75 µg/mL (≈ 1.08 µM) in the experiment with Staphylococcus aureus [2]; 0.5 µg/mL (≈ 0.309 µM) in the experiment on Staphylococcus aureus [3]; 0.5 µg/mL (≈ 0.309 µM) in the experiment with Staphylococcus aureus [4]; 0.5 µg/mL (≈ 0.309 µM) in the experiment with Staphylococcus aureus [5]; 1.75 µg/mL (≈ 1.08 µM) against Staphylococcus aureus [6]. For the same compound, the MIC in the experiment with Staphylococcus aureus [7] and against Staphylococcus aureus [8] was 2 µg/mL (≈ 1.23 µM) throughout.
As for `CO[C@H]1/C=C/O[C@@]2(C)Oc3c(C)c(O)c4c(O)c(c(/C=N/N5CCN(C)CC5)c(O)c4c3C2=O)NC(=O)/C(C)=C\C=C\[C@H](C)[C@H](O)[C@@H](C)[C@@H](O)[C@@H](C)[C@H](OC(C)=O)[C@@H]1C` [RIFAMPIN], the MIC in the experiment on Staphylococcus aureus [1] is 0.004 µg/mL (≈ 0.00486 µM); with Staphylococcus aureus [2] it was 0.004 µg/mL (≈ 0.00486 µM); against Staphylococcus aureus [3], 0.004 µg/mL (≈ 0.00486 µM); in the experiment on Staphylococcus aureus [4], 0.004 µg/mL (≈ 0.00486 µM); in the experiment on Staphylococcus aureus [5], greater than 32 µg/mL; against Staphylococcus aureus [6] it was 0.004 µg/mL (≈ 0.00486 µM). Further, the MIC in the experiment on Staphylococcus aureus [7] was greater than 32 µg/mL; in the experiment with Staphylococcus aureus [8], 0.006 µg/mL (≈ 0.00729 µM).
With `Cc1onc(-c2ccccc2)c1C(=O)N[C@@H]1C(=O)N2[C@@H]1SC(C)(C)[C@@H]2C(=O)O` [OXACILLIN], the MIC in the experiment on Staphylococcus aureus [1] was 6 µg/mL (≈ 14.9 µM); against Staphylococcus aureus [2], greater than 256 µg/mL; with Staphylococcus aureus [3] it was 1.5 µg/mL (≈ 3.74 µM); with Staphylococcus aureus [4] it was 1.5 µg/mL (≈ 3.74 µM); against Staphylococcus aureus [5], 5 µg/mL (≈ 12.5 µM); with Staphylococcus aureus [6], greater than 256 µg/mL. Moreover, the MIC in the experiment with Staphylococcus aureus [7] and with Staphylococcus aureus [8] was greater than 256 µg/mL each time.
With `C[C@@H]1O[C@@H]1P(=O)(O)O` [FOSFOMYCIN], the MIC amounted to 1 µg/mL (≈ 7.24 µM) with Staphylococcus aureus [1]; 96 µg/mL (≈ 695 µM) in the experiment on Staphylococcus aureus [2]; 0.38 µg/mL (≈ 2.75 µM) in the experiment with Staphylococcus aureus [3]; 0.38 µg/mL (≈ 2.75 µM) against Staphylococcus aureus [4]; 1.5 µg/mL (≈ 10.9 µM) with Staphylococcus aureus [5]; 96 µg/mL (≈ 695 µM) in the experiment with Staphylococcus aureus [6]. Moreover, the MIC is 96 µg/mL (≈ 695 µM) against Staphylococcus aureus [7] and greater than 1020 µg/mL in the experiment on Staphylococcus aureus [8].
For `C[C@@H](O)[C@H]1C(=O)N2C(C(=O)O)=C(SCCNC=N)C[C@H]12` [IMIPENEM ANHYDROUS], the MIC against Staphylococcus aureus [1] was 0.75 µg/mL (≈ 2.51 µM); against Staphylococcus aureus [2], greater than 32 µg/mL; in the experiment on Staphylococcus aureus [3] it was 0.19 µg/mL (≈ 0.635 µM); in the experiment on Staphylococcus aureus [4], 0.19 µg/mL (≈ 0.635 µM); against Staphylococcus aureus [5] it was 1 µg/mL (≈ 3.34 µM); with Staphylococcus aureus [6], greater than 32 µg/mL. Further, the MIC in the experiment with Staphylococcus aureus [7] and against Staphylococcus aureus [8] was greater than 32 µg/mL throughout.
As for `CN[C@H](CC(C)C)C(=O)N[C@H]1C(=O)N[C@@H](CC(N)=O)C(=O)N[C@H]2C(=O)N[C@H]3C(=O)N[C@H](C(=O)N[C@H](C(=O)O)c4cc(O)cc(O)c4-c4cc3ccc4O)[C@H](O)c3ccc(c(Cl)c3)Oc3cc2cc(c3O[C@@H]2O[C@H](CO)[C@@H](O)[C@H](O)[C@H]2O[C@H]2C[C@](C)(N)[C@H](O)[C@H](C)O2)Oc2ccc(cc2Cl)[C@H]1O` [VANCOMYCIN], the MIC in the experiment on Staphylococcus aureus [3] was determined as 0.75 µg/mL (≈ 0.518 µM); against Staphylococcus aureus [4] it was 0.75 µg/mL (≈ 0.518 µM); against Staphylococcus aureus [7], 3 µg/mL (≈ 2.07 µM); against Staphylococcus aureus [8], 3 µg/mL (≈ 2.07 µM).

For the origin of these results see ChEMBL document CHEMBL1649526, “Selection of heterogeneous vancomycin-intermediate Staphylococcus aureus by imipenem” (2009).
